Laboratory results reported in PubChem BioAssay AID2060512 (Molecular Pharmacology Branch, DTP, NCI, 2025).
pIC50: −log10 of the molar value.

Tested on: 186277-243-T-J2-PDC complex spheroid viability
Experiment: Anticancer human tumor 186277-243-T-J2-PDC patient-derived colon adenocarcinoma cell line growth inhibition [GQUAD]
Conditions: for pIC50: curve of first compound; for viability, T/C: stronger effect = lower value
Source text: DNA G-quadruplex Stabilizer Agents in Combinations in Complex Spheroids
A high-throughput screen of multi-cell type tumor spheroids was designed to identify active combinations of DNA G-quadruplex stabilizer agents and targeted small molecules. Complex spheroids include a stromal component modeled by human endothelial cells (HUVEC) and fibroblasts modeled by human mesenchymal stem cells (MSCs). The concentration ranges selected for each drug and investigational agent were based upon clinically achievable concentrations if the clinical Cmax of the agent was known.
Compounds. The drugs and investigational agents: pidnarulex (CX-5461; NSC782164), APTO-253 (NSC789042), BRACO-19 (NSC847499), peposertib (NSC802822), ceralasertib (NSC780249), elimusertib (NSC800525), camonsertib (NSC841442), AZD-1390 (NSC803789), olaparib (NSC753686), talazoparib (NSC767125), ART-558 (NSC835418), sotorasib (NSC818433), MRTX-1133 (NSC836407), SN-38 (NSC673596), topotecan (NSC609699), etoposide (NSC141540), doxorubicin (NSC123127), gemcitabine (NSC613327), 5-fluorouracil (NSC19893), paclitaxel (NSC125973), vemurafenib (NSC761431), panobinostat (NSC761190), R-306465 (JNJ-16241199; NSC773264), adavosertib (NSC754352), TP-3654 (NSC805149), carboplatin (NSC241240), KSQ-4279 (NSC840948), and staurosporine (NSC755774) were obtained from the National Cancer Institute (NCI) Developmental Therapeutics Program Chemical Repository (34). The FDA-approved anticancer drug set is available from the NCI Developmental Therapeutics Program. […] The stock solutions were prepared in dimethyl sulfoxide (DMSO, Sigma-Aldrich, St. Louis, MO, cat. D2650) at 800-fold the tested concentration and stored at -70 degrees C prior to their use. All drugs and investigational agents were tested over a range starting from a high concentration at or near the clinical Cmax and decreasing in half-log increments. If the clinical Cmax for an agent had not been determined, the highest concentration tested was 10 microM.
2.3 Cell Culture. All cells were maintained in an incubator at 37 degrees C and 5% CO2 with 95% humidity. The PDC lines were cultured according to standard operating procedures established by the NCI PDMR. All PDCs were thawed and cultured in Matrigel-coated flasks prepared with a working solution of 1X Ham's F-12 nutrient mix, without supplementation (Invitrogen, cat. 11765054), 100 U/mL penicillin-streptomycin (Invitrogen, cat. 15140122), and 2.5% Matrigel (Corning Inc., cat. 354248) for the first three passages. The 857933-349-R-J2-PDC line was cultured in 6C/Colon 1B media, which includes advanced DMEM/F-12 (Thermo Fisher Scientific, cat. 12634028), 10 mM HEPES (Thermo Fisher Scientific, cat. 15630080), 1X GlutaMAX supplement (Thermo Fisher Scientific, cat. 35050061), 0.1 mg/mL primocin (InvivoGen, cat. ant-pm-2), 10% defined fetal bovine serum, heat inactivated (HyClone Laboratories Inc., cat. SH30070.03HI), 50% L-WRN conditioned media (ATCC, cat. CRL-3276), 1.25 mM N-Acetyl-L-cysteine (Sigma-Aldrich, cat. A9165), 10 mM nicotinamide (Sigma-Aldrich, cat. N0636), 1X B-27 supplement (Thermo Fisher Scientific, cat. 17504044), 1X N-2 supplement (Thermo Fisher Scientific, cat. 17502048), 10 microM Y-27632 dihydrochloride (Tocris Bioscience, cat. 1254), and 50 ng/mL human EGF recombinant protein (Thermo Fisher Scientific, cat. PHG0311). The 485176-168-R4-J1-PDC line was cultured in Panc media, which includes all 6C/Colon 1B media components plus 100 ng/mL human FGF-10 (Thermo Fisher Scientific, cat. 100-26), 500 nM SB-431542 (Selleckchem, cat. S1067), and gastrin (Tocris, cat. 3006).
[…]

[1] = second compound 0.0316 µM, first compound 0.0316 µM
[2] = second compound 0.0316 µM, first compound 0.316 µM
[3] = second compound 0.1 µM, first compound 0.0316 µM
[4] = second compound 0.1 µM, first compound 0.316 µM
[5] = second compound 0.316 µM, first compound 0.0316 µM
[6] = second compound 0.316 µM, first compound 0.316 µM
[7] = second compound 1 µM, first compound 0.0316 µM
[8] = second compound 1 µM, first compound 0.316 µM
[9] = second compound 3.16 µM, first compound 0.0316 µM
[10] = second compound 3.16 µM, first compound 0.316 µM
[11] = second compound 10 µM, first compound 0.0316 µM
[12] = second compound 10 µM, first compound 0.316 µM
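Further: spheroids exposed to drugs for 7 days.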
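Wherever viability, T/C is given: 100% = DMSO vehicle control viability.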

With `Cc1[nH]c2ccccc2c1CCNCc1ccc(/C=C/C(=O)NO)cc1` + CN(C)c1ccc(Nc2c3ccc(NC(=O)CCN4CCCC4)cc3nc3cc(NC(=O)CCN4CCCC4)ccc23)cc1 as the compound, how does the pIC50 (second compound 0.0316 µM) read?
Its pIC50 is 7.24.

What about the pIC50 (second compound 0.1 µM) of the same compound?
The pIC50 was 7.25.

What about the pIC50 (second compound 0.316 µM) of the same compound?
Its pIC50 is 7.23.

And the pIC50 (second compound 1 µM)?
Its pIC50 is 7.20.

What about the pIC50 (second compound 3.16 µM) of the same compound?
The pIC50 was 7.23.

And the pIC50 (second compound 10 µM)?
Its pIC50 is 7.24.

What about the viability, T/C (second compound 0.0316 µM, first compound 0.000999 µM) of the same compound?
Its viability, T/C is 99.5%.

What about the viability, T/C (second compound 0.0316 µM, first compound 0.00316 µM) of the same compound?
The viability, T/C was 86.5%.

What about the viability, T/C (second compound 0.0316 µM, first compound 0.00999 µM) of the same compound?
Its viability, T/C is 96.7%.

And the viability, T/C [1]?
The viability, T/C was 92.6%.

And the viability, T/C (second compound 0.0316 µM, first compound 0.0999 µM)?
The viability, T/C was 12.1%.

And the viability, T/C [2]?
Its viability, T/C is 0.65%.

What about the viability, T/C (second compound 0.1 µM, first compound 0.000999 µM) of the same compound?
The viability, T/C was 115%.

What about the viability, T/C (second compound 0.1 µM, first compound 0.00316 µM) of the same compound?
The viability, T/C was 93.7%.

What about the viability, T/C (second compound 0.1 µM, first compound 0.00999 µM) of the same compound?
Its viability, T/C is 80.6%.

And the viability, T/C [3]?
The viability, T/C was 84.6%.

And the viability, T/C (second compound 0.1 µM, first compound 0.0999 µM)?
The viability, T/C was 14.9%.

And the viability, T/C [4]?
Its viability, T/C is 0.86%.

What about the viability, T/C (second compound 0.316 µM, first compound 0.000999 µM) of the same compound?
The viability, T/C was 76.5%.

What about the viability, T/C (second compound 0.316 µM, first compound 0.00316 µM) of the same compound?
Its viability, T/C is 96.9%.

And the viability, T/C (second compound 0.316 µM, first compound 0.00999 µM)?
The viability, T/C was 91.7%.

What about the viability, T/C [5] of the same compound?
The viability, T/C was 87.8%.

What about the viability, T/C (second compound 0.316 µM, first compound 0.0999 µM) of the same compound?
The viability, T/C was 17.7%.

What about the viability, T/C [6] of the same compound?
Its viability, T/C is 2.93%.

And the viability, T/C (second compound 1 µM, first compound 0.000999 µM)?
The viability, T/C was 86.3%.

And the viability, T/C (second compound 1 µM, first compound 0.00316 µM)?
Its viability, T/C is 94.6%.

What about the viability, T/C (second compound 1 µM, first compound 0.00999 µM) of the same compound?
The viability, T/C was 87.4%.

What about the viability, T/C [7] of the same compound?
Its viability, T/C is 107%.

What about the viability, T/C (second compound 1 µM, first compound 0.0999 µM) of the same compound?
The viability, T/C was 21%.

And the viability, T/C [8]?
The viability, T/C was 1.2%.

What about the viability, T/C (second compound 3.16 µM, first compound 0.000999 µM) of the same compound?
The viability, T/C was 93%.

And the viability, T/C (second compound 3.16 µM, first compound 0.00316 µM)?
The viability, T/C was 93%.

And the viability, T/C (second compound 3.16 µM, first compound 0.00999 µM)?
Its viability, T/C is 96%.

What about the viability, T/C [9] of the same compound?
The viability, T/C was 92%.

And the viability, T/C (second compound 3.16 µM, first compound 0.0999 µM)?
Its viability, T/C is 13.1%.

What about the viability, T/C [10] of the same compound?
Its viability, T/C is 1.46%.

What about the viability, T/C (second compound 10 µM, first compound 0.000999 µM) of the same compound?
The viability, T/C was 82.8%.

And the viability, T/C (second compound 10 µM, first compound 0.00316 µM)?
The viability, T/C was 92.6%.

What about the viability, T/C (second compound 10 µM, first compound 0.00999 µM) of the same compound?
Its viability, T/C is 97.2%.

What about the viability, T/C [11] of the same compound?
The viability, T/C was 96.2%.

And the viability, T/C (second compound 10 µM, first compound 0.0999 µM)?
Its viability, T/C is 12.4%.

And the viability, T/C [12]?
Its viability, T/C is 0.74%.

What does the source list for `Cc1cccc(N(C)C(=O)C2C(O)CCN2c2nc(C)cc(C(F)(F)F)c2C#N)c1` (centres undefined) + CN(C)c1ccc(Nc2c3ccc(NC(=O)CCN4CCCC4)cc3nc3cc(NC(=O)CCN4CCCC4)ccc23)cc1?
pIC50 (second compound 0.0316 µM): < 5.00; pIC50 (second compound 0.1 µM): < 5.00; pIC50 (second compound 0.316 µM): < 5.00; pIC50 (second compound 1 µM): < 5.00; pIC50 (second compound 3.16 µM): < 5.00; pIC50 (second compound 10 µM): < 5.00; viability, T/C [1]: 88.8%; viability, T/C (second compound 0.0316 µM, first compound 0.1 µM): 99.5%; viability, T/C [2]: 115%; viability, T/C (second compound 0.0316 µM, first compound 1 µM): 109%; viability, T/C (second compound 0.0316 µM, first compound 3.16 µM): 105%; viability, T/C (second compound 0.0316 µM, first compound 10 µM): 100%; viability, T/C [3]: 94.1%; viability, T/C (second compound 0.1 µM, first compound 0.1 µM): 105%; viability, T/C [4]: 94.9%; viability, T/C (second compound 0.1 µM, first compound 1 µM): 91.8%; viability, T/C (second compound 0.1 µM, first compound 3.16 µM): 108%; viability, T/C (second compound 0.1 µM, first compound 10 µM): 88.7%; viability, T/C [5]: 81%; viability, T/C (second compound 0.316 µM, first compound 0.1 µM): 107%; viability, T/C [6]: 98.9%; viability, T/C (second compound 0.316 µM, first compound 1 µM): 97.6%; viability, T/C (second compound 0.316 µM, first compound 3.16 µM): 102%; viability, T/C (second compound 0.316 µM, first compound 10 µM): 104%; viability, T/C [7]: 97.1%; viability, T/C (second compound 1 µM, first compound 0.1 µM): 93.2%; viability, T/C [8]: 98.9%; viability, T/C (second compound 1 µM, first compound 1 µM): 101%; viability, T/C (second compound 1 µM, first compound 3.16 µM): 102%; viability, T/C (second compound 1 µM, first compound 10 µM): 114%; viability, T/C [9]: 86.4%; viability, T/C (second compound 3.16 µM, first compound 0.1 µM): 91.7%; viability, T/C [10]: 106%; viability, T/C (second compound 3.16 µM, first compound 1 µM): 118%; viability, T/C (second compound 3.16 µM, first compound 3.16 µM): 83%; viability, T/C (second compound 3.16 µM, first compound 10 µM): 110%; viability, T/C [11]: 88.6%; viability, T/C (second compound 10 µM, first compound 0.1 µM): 104%; viability, T/C [12]: 93.7%; viability, T/C (second compound 10 µM, first compound 1 µM): 120%; viability, T/C (second compound 10 µM, first compound 3.16 µM): 98.2%; viability, T/C (second compound 10 µM, first compound 10 µM): 75.6%
